Reference: patent US12544372B2, “Methods of treating rheumatoid arthritis, chronic spontaneous urticaria, and systemic lupus erythematosis using an inhibitor of Bruton's tyrosine kinase” (Genentech, Inc., priority 2019, dated 2026)
Marks after values point to notes of the source that are not given here.

Columns and labels:
Type in all cases: in vivo, human
Anti-dsDNA = assay: SLE study biomarker: anti-dsDNA autoantibodies; conditions: patients positive at baseline (>30 IU/mL)
C4 = assay: SLE study biomarker: C4
Procedure: The following biomarkers were explored according to the biomarker objectives provided above in the Study Objectives. In Table 13, biomarkers are measured at baseline and subsequent timepoints during and after treatment. One set of biomarkers evaluated is the plasmablast signature. Plasmablasts are rapidly dividing, short-lived antibody secreting cells. While they represent a small proportion of B cells in the blood, they are responsible for a majority of antibody transcripts found in whole blood mRNA. The plasmablast signature comprises the biomarkers IgJ, Mzbl, and Txndc5. The gene expression of IgJ, Mzbl, and Txndc5 may be measured, for example, a polypeptide expression by evaluating the level of mRNA for said gene in a patient's blood relative to a reference level.

Total IgG = assay: RA study biomarker: total IgG
Procedure: […] The biomarkers evaluated in this assessment were chemokine [C-C motif] ligand 4 (CCL4), IL-6, and TNF-like cytokine 1A (TL1A). Total IgM, IgG, rheumatoid factor IgM autoantibody (RF), CCL4, TL1A, IL-6, and anti-CCP autoantibody (ACPA IgG) levels were analyzed with immunoassays. CD19^+ B cells and CD3^+ T cells were measured by flow cytometry. The proportion of patients achieving an ACR50 response at week 12 and the change in DAS28 score by week 12 were assessed relative to seropositivity (RF and/or ACPA positive at baseline) or baseline levels of RF in both cohorts. To select which biomarkers to evaluate in this trial, BTK-dependent myeloid biomarkers were identified using peripheral blood CD14^+ monocytes stimulated with immune-complexes in the presence or absence of a BTK inhibitor. In brief, the expression levels of genes in human monocytes were assayed under conditions of no stimulation; with human serum albumin immune complex stimulation; with stimulation and a low concentration of a BTK inhibitor with similar characteristics to fenebrutinib; or with stimulation and a high concentration of the BTK inhibitor. […] Genes annotated with cytokine activity were selected. The color bar represents normalized gene expression.

CRP = assay: RA study: CRP versus baseline
Procedure: As used herein, “CRP” refers to C-reactive protein, or the blood test for inflammation in the body which measures C-reactive protein in the blood. CRP, a protein produced in the liver, will increase in concentration in the blood in response to inflammation. CRP may be measured by a “hsCRP” test, which measures high sensitivity CRP. In some embodiments, a positive result for elevated CRP is as measured by hsCRP ≥0.400 mg/dL hsCRP test. In other embodiments, a positive result for elevated CRP is as measured by a hsCRP ≥0.650 mg/dL hsCRP test. CRP tests are widely available from a variety of vendors (LabCorp, Quest Diagnostics, Life Line Screening, etc.).
The specific components of the ACR Assessments used in this study are as follows: Tender/Painful Joint Count (68), Swollen Joint Count (66), Patient's Assessment of Arthritis Pain, Patient's Global Assessment of Arthritis, Physician's Global Assessment of Arthritis, CRP and HAQ-DI.

## C[C@H]1CN(C2COC2)CCN1c1ccc(Nc2cc(-c3ccnc(N4CCn5c(cc6c5CC(C)(C)C6)C4=O)c3CO)cn(C)c2=O)nc1 [fenebrutinib, (S)-2-(3′-(hydroxymethyl)-1-methyl-5-((5-(2-methyl-4-(oxetan-3-yl)piperazin-1-yl)pyridin-2-yl)amino)-6-oxo-1,6-dihydro-[3,4′-bipyridin]-2′-yl)-7,7-dimethyl-2,3,4,6,7,8-hexahydro-1H-cyclopenta[4,5]pyrrolo[1,2-a]pyrazin-1-one]
Anti-dsDNA; 150 mg QD
  Anti-dsDNA, Median Change from Baseline at Week 48: −38.3* IU/ml
Anti-dsDNA; 200 mg BID
  Anti-dsDNA, Median Change from Baseline at Week 48: −75.7* IU/ml
C4; 150 mg QD
  C4, Median Change from Baseline at Week 48: +0.02* g/L
C4; 200 mg BID
  C4, Median Change from Baseline at Week 48: +0.01* g/L
Total IgG; Cohort 1, 150 mg QD, Week 4
  Total IgG Reduction as % of Baseline: 97%*
Total IgG; Cohort 1, 150 mg QD, Week 8
  Total IgG Reduction as % of Baseline: 94%*
Total IgG; Cohort 1, 150 mg QD, Week 12
  Total IgG Reduction as % of Baseline: 95%*
Total IgG; Cohort 1, 200 mg BID, Week 4
  Total IgG Reduction as % of Baseline: 95%*
Total IgG; Cohort 1, 200 mg BID, Week 8
  Total IgG Reduction as % of Baseline: 92%*
Total IgG; Cohort 1, 200 mg BID, Week 12
  Total IgG Reduction as % of Baseline: 93%*
Total IgG; cohort 1, 200 mg twice daily, by week 12
  IgG absolute reduction relative to placebo: -115 mg/dL
Total IgG; cohort 2, 200 mg twice daily, by week 12
  IgG reduction relative to placebo: -101 mg/dL
CRP; Cohort 1, 200 mg BID, Week 8 and Week 12
  CRP, % of BL CRP: 59%
CRP; Cohort 2, Week 8 and Week 12
  CRP levels: reduced CRP levels
